Results: patent US20250034139A1, “AMINE COMPOUNDS HAVING ANTI-INFLAMMATORY, ANTIFUNGAL, ANTIPARASITIC, AND ANTICANCER ACTIVITY” (PHARMA CINQ, LLC, priority 2013, published 2025)

Key:
THP-1 cells = experiment: Example D: LPS-triggered THP-1 cell death assay, acute/5-hour and chronic/48-hour; assay type: cell-based, Human; conditions: 10 ng/ml LPS, 0.1 μM test compound, 48 hours
Procedure: Compounds of the invention were tested at 0.1 μM versus AC in the LPS-triggered THP-1 cell death assay. Both acute/5-hour and chronic/48-hour phases of cell death were assessed. Compounds were screened in batches with DMSO as the negative control and AC as the high activity control.

[1] = tested on: PC3 human prostate cancer cells; experiment: Example S: in vitro anticancer screen, PC-3 cells, Wst1; assay type: cell-based; conditions: Homo sapiens, PC-3, approximately 20 hours, Wst1, read-out: PC-3, percent of cancer cell survival relative to vehicle treated cells
Procedure: Activity against PC3 human prostate cancer cells in vitro was assessed by a similar method. PC-3 prostate cancer cells were plated at 2×10^4 cells/well in 96 well flat bottom tissue culture plates, and incubated for approximately 20 hours with vehicle or test compounds at concentrations of 0.4, 0.5 or 2.5 μM as indicated for specific compounds in the right-hand column of Table 37. A 1/10th volume of Wst1 dye was added/well and incubated for two hours in the cell culture incubator. Samples were analyzed in triplicate on an EL800 Universal Microplate Reader at 450 nm, reference wavelength 630 nm.
(§1) Numerical values in the Table 37 represent percent of cancer cell survival relative to vehicle treated cells at the indicated concentrations, with values under 100 indicating anticancer cytotoxic activity at the drugs concentrations tested.

[2] = tested on: PC-3 prostate cancer cells; experiment: Example T: sensitisation of PC-3 cells to doxorubicin, oxaliplatin, paclitaxel or vincristine, Wst1; assay type: cell-based, human; conditions: PC-3 cells, 72 hours; for viability at 2.5 µM / viability at 5 µM: Homo sapiens, Wst1, vehicle = 100, read-out: No Chemo: percent cell survival; for viability at 2.5 µM: compound 2.5 μM alone; for Doxorubicin 3.5 μM: percent cell survival / Oxaliplatin 100 μM: percent cell survival / Paclitaxel 50 μM: percent cell survival / Vincristine 100 nM: percent cell survival: chemotherapy agent alone normalized to 100%; for viability at 5 µM: compound 5 μM alone
[3] = tested on: 4T1 murine breast cancer cells; experiment: Example S: in vitro anticancer screen, 4T1 cells, Wst1; assay type: cell-based, mouse; conditions: Mus musculus, 4T1, 18 h, 18 hr, Wst1; for viability at 1 µM: read-out: 4T1 1 μM, percent of cancer cell survival relative to vehicle treated cells; for viability at 5 µM: read-out: 4T1 5 μM, percent of cancer cell survival relative to vehicle treated cells
Procedure: Anticancer activity against 4T1 murine breast cancer cells cancer cells was assessed in vitro by seeding 1×10^4 cells/well in flat bottom culture plates, then treating with selected 1 μM or 5 μM concentrations of compounds for 18 hr after plating. Then 10 μL of Wst1 dye reagent, a tetrazolium dye indicator for […], was added/well and incubated approximately 2 hr before being assayed on the Biotek EL800 Universal microplate reader (450 nm, reference 630 nm).
as §1

[4] = compound 2.5 μM + doxorubicin 3.5 μM
[5] = compound 2.5 μM + oxaliplatin 100 μM
[6] = compound 2.5 μM + paclitaxel 50 μM
[7] = compound 2.5 μM + vincristine 100 nM
[8] = compound 5 μM + doxorubicin 3.5 μM
[9] = compound 5 μM + oxaliplatin 100 μM
[10] = compound 5 μM + paclitaxel 50 μM
[11] = compound 5 μM + vincristine 100 nM

SMILES | Viable cell percent change, Chronic/48-hour, Mean (THP-1 cells) [%] | viability at 2.5 µM [1] [%] | viability at 2.5 µM [2] [%] | Doxorubicin 3.5 μM: percent cell survival [2, 4] [%] | Oxaliplatin 100 μM: percent cell survival [2, 5] [%] | Paclitaxel 50 μM: percent cell survival [2, 6] [%] | Vincristine 100 nM: percent cell survival [2, 7] [%] | viability at 1 µM [3] [%] | viability at 5 µM [3] [%] | viability at 5 µM [1] [%] | viability at 5 µM [2] [%] | Doxorubicin 3.5 μM: percent cell survival [2, 8] [%] | Oxaliplatin 100 μM: percent cell survival [2, 9] [%] | Paclitaxel 50 μM: percent cell survival [2, 10] [%] | Vincristine 100 nM: percent cell survival [2, 11] [%]
CCOCCCCCCCCn1cnc2cnc3ccccc3c21 [CD, 1-(8-Ethoxyoctyl)-1H-imidazo[4,5-c]quinoline] | 7.55 | 16.6 | 16.6 | 19.5 | 20.1 | 23.2 | 17.1 |  |  |  |  |  |  |  | 
COCCCCCCCCn1cnc2cnc3ccccc3c21 [CE, 1-(8-Methoxyoctyl)-1H-imidazo[4,5-c]quinoline] | 4.71 | 16.2 | 16.2 | 44.3 | 18.8 | 23.5 | 15.6 |  |  |  |  |  |  |  | 
COCCCCCNc1ccnc2ccccc12 [CM, N-(5-Methoxypentyl)quinolin-4-amine] |  |  |  |  |  |  |  | 104 | 221 | 37.8 | 37.8 | 72.6 | 78.1 | 74.8 | 81.3
CCOc1ccccc1OCCCNc1ccnc2ccccc12 [CS, N-[3-(2-Ethoxyphenoxy)propyl]quinolin-4-amine] | 66.27 | 41.3 | 41.3 | 79 | 84.2 | 69.7 | 82.8 |  |  |  |  |  |  |  | 
COc1ccccc1OCCCNc1ccnc2ccccc12 [CT, N-[3-(2-Methoxyphenoxy)propyl]quinolin-4-amine] | 34.36 | 34.5 | 34.5 | 63.2 | 71.9 | 46.3 | 46.3 |  |  |  |  |  |  |  | 
c1ccc(COc2ccccc2OCCCNc2ccnc3ccccc23)cc1 [CU, N-{3-[2-(Benyloxy)phenoxy]propyl}quinolin-4-amine] | 41.84 | 37.6 | 37.6 | 65 | 74.9 | 100.2 | 56.7 |  |  |  |  |  |  |  | 
CCCCCCOCCCCCCCCNc1cnc2ccccc2c1 [EL, N-[8-(Hexyloxy)octyl]quinolin-3-amine] |  | 41.8 | 41.8 | 73.7 | 99.4 | 86.1 | 70.8 | 108 | 39.4 |  |  |  |  |  | 
CCOCc1nc2cnc3ccccc3c2n1CC(C)(C)O [FB, 1-[2-(Ethoxymethyl)-1H-imidazo[4,5-c]quinolin-1-yl]-2-methylpropan-2-ol] |  | 97.7 | 97.7 | 89.1 | 95.5 | 93.2 | 98.6 | 92.7 | 90 |  |  |  |  |  | 
CCCCCCCCCCCCCCCc1nc2c(O)nc3ccccc3c2n1CC(C)C [FD, 1-Isobutyl-2-pentadecyl-1H-imidazo[4,5-c]quinolin-4-ol] |  |  |  |  |  |  |  | 106 | 112 | 112 | 112 | 101 | 85.3 | 95.6 | 98.7
CCCCCCCCCCCCCCCCn1cnc2cnc3ccccc3c21 [FE, 1-Hexadecyl-1H-imidazo[4,5-c]quinoline] |  |  |  |  |  |  |  | 108 | 31.7 | 34.2 | 34.2 | 46.8 | 67.6 | 113.7 | 37.3
CCCCCCCCCCCCCCCCn1cnc2c(N)nc3ccccc3c21 [FF, 1-Hexadecyl-1H-imidazo[4,5-c]quinolin-4-amine] |  |  |  |  |  |  |  | 103 | 102 | 93 | 93 | 90.7 | 95.2 | 136.1 | 110.1
CCCCCCCCCCCCOCCn1cnc2c(N(C)C)nc3ccccc3c21 [FH, 1-[2-(Dodecyloxy)ethyl]-N,N-dimethyl-1H-imidazo[4,5-c]quinolin-4-amine] |  |  |  |  |  |  |  | 101 | 102 | 89 | 89 | 79.6 | 82.3 | 131.8 | 114.9
CCCCCCCCCCCCn1cnc2cnc3ccccc3c21 [FY, 1-Dodecyl-1H-imidazo[4,5-c]quinoline] |  | 36 | 36 | 74.6 | 91.5 | 91 | 80.1 | 95.2 | 26.8 |  |  |  |  |  | 
CCCCCCCCCCOCCCn1cnc2cnc3ccccc3c21 [FZ, 1-[3-(Decyloxy)propyl]-1H-imidazo[4,5-c]quinoline] |  |  |  |  |  |  |  | 91.4 | 56.6 | 32.7 | 32.7 | 39.6 | 67.7 | 114.8 | 38.5
CCCCCCOc1cccc(OCCCn2cnc3cnc4ccccc4c32)c1 [GD, 1-{3-[3-(Hexyloxy)phenoxy]propyl}-1H-imidazo[4,5-c]quinoline] |  | 24.3 | 24.3 | 39.5 | 26.7 | 27 | 23.5 |  |  |  |  |  |  |  | 
